Test results as given in paper PMC8545225 (Nanoscale, 2021).

Experiment: 2D DOSY NMR diffusion measurement and hydrodynamic size
Assay type: physicochemical
Settings: DOSY NMR in D2O, free ligands at 289.75 K

Compound	Diffusion coefficient ds
O=S(=O)([O-])c1cccc(P(c2ccccc2)c2ccccc2)c1.[Na+] [TPPMS, triphenylphosphine monosulfonate]	2.42 × 10^−10 m^2·s^−1
O=C(O)c1ccc(P(c2ccccc2)c2ccccc2)cc1 [DPPBA, 4-(diphenylphosphino)benzoic acid]	1.37 × 10^−9 m^2·s^−1
